This is an account of results in patent EP4624497A1, “PHOSPHOEN[…] PROBE, PREPARATION METHOD THEREFOR AND APPLICATION THEREOF” (priority 2022, dated 2024).

Common to all, as to experiment: phosphoenolpyruvate titration of purified optical probe (fluorescence ratio)
Format in all cases: binding
Conditions in all cases: phosphoenolpyruvate 0 to 10 mM, purified probe treated 10 minutes, ex 420/485 nm, em 528 nm

Assay [1] deals with T1, Thermus thermophilus phosphofructokinase TtPFK (SEQ ID NO: 1) optical probe 254/255-TtPFK-cpYFP, no mutation, SEQ ID NO: 10 (Thermus thermophilus, UniProt P21777).
T1 construct: His-tag; made in house; host or cells: E. coli BL21 (DE3)
The procedure: (§1) • 1. The expression vectors (for example, a phosphoenolpyruvate optical probe expression vector based on pCDF.) were transformed into BL21 (DE3) cells, incubated inverted overnight, and the clones were picked from the plates into 250 mL Erlenmeyer flasks, placed in a shaker at 37 °C and incubated at 220 rpm to OD=0.4-0.8, then 1/1000 (V/V) of IPTG (1 M) was added to induce expression at 18 °C for 24-36 hours. • 2. Upon completion of inducible expression, cells were harvested by centrifugation at 4000 rpm for 30 min, resuspended in 50 mM phosphate buffer and disrupted ultrasonically until the broth were clear, centrifuged at 9600 rpm at 4 °C for 20 min. • 3. The centrifuged supernatant was used to obtain protein by purification through a self-packed nickel column affinity chromatography column, and the protein obtained after nickel column affinity chromatography was further used to obtain protein dissolved in 100 mM HEPES buffer (pH 7.4). • 4. After purified proteins were subjected to SDS-PAGE, probes were diluted to a protein solution having a final concentration of 0.2-5 µM using assay buffer (100 mm HEPES, 100 mM NaCl, pH 7.4). Phosphoenolpyruvate was formulated as a stock solution at a final concentration of 50 mM with the assay buffer (100 mM HEPES, 100 mM NaCl, pH 7.4). • 5. 100 µl 1 µM of protein solution was taken, incubated at 37 °C for 10 min, phosphoenolpyruvate was added for titration, and the fluorescence intensity of 528 nm emission after 420 nm and 485 nm fluorescence excitation of the protein was measured. The fluorescence excitation and emission determination of the samples were done using a multifunctional fluorescence microplate reader. • 6. 100 µl 1 µM of protein solution was taken, incubated at 37 °C for 10 min, and phosphoenolpyruvate was added to determine the absorption and fluorescence spectra of the proteins. Determination of the absorption and fluorescence spectra of the samples was done by spectrophotometer and spectrofluorometer.
(§2) The recombinant plasmids of the mutation library were transformed into BL21 (DE3) to induce expression, and the purified probe protein was subjected to phosphoenolpyruvate-responsive screening, dividing the detection signal of the fusion fluorescent protein containing 2 mM phosphoenolpyruvate by that of the fusion fluorescent protein without phosphoenolpyruvate. […]

Assay [2] addresses T2, Thermus thermophilus TtPFK optical probe 254/256-TtPFK-cpYFP variant, TtPFK I253S/Q254L/G256V/G257L, cpYFP Y1T/N246F (Thermus thermophilus, UniProt P21777, form not given/G256V/G257L/I253S/Q254L).
T2 construct: the numbering corresponds to the full length of the phosphoenolpyruvate-sensitive polypeptide; His-tag; made in house; host or cells: E. coli BL21 (DE3)
The protocol: as §1, §2

For assay [3], the target named is T3, Thermus thermophilus TtPFK optical probe 254/256-TtPFK-cpYFP variant, TtPFK I253D/Q254L/G256V/G257L, cpYFP Y1T/N246F (Thermus thermophilus, UniProt P21777, form not given/G256V/G257L/I253D/Q254L).
T3 construct: the numbering corresponds to the full length of the phosphoenolpyruvate-sensitive polypeptide; His-tag; made in house; host or cells: E. coli BL21 (DE3)
The procedure:
as §1, §2

In assay [4] the target is T4, Thermus thermophilus TtPFK optical probe 254/255-TtPFK-I253K/Q254L/R255L/G256F-cpYFP-Y1S, SEQ ID NO: 12 (Thermus thermophilus, UniProt P21777, form not given/G256F/I253K/Q254L/R255L).
T4 construct: the numbering corresponds to the full length of the phosphoenolpyruvate-sensitive polypeptide; His-tag; made in house; host or cells: E. coli BL21 (DE3)
The protocol: as §1, §2

Assay [5] addresses T5, Thermus thermophilus TtPFK optical probe 254/255-TtPFK-cpYFP variant, TtPFK I253F/Q254L/R255L/G256F, cpYFP Y1G/N246F (Thermus thermophilus, UniProt P21777, form not given/G256F/I253F/Q254L/R255L).
T5 construct: the numbering corresponds to the full length of the phosphoenolpyruvate-sensitive polypeptide; His-tag; made in house; host or cells: E. coli BL21 (DE3)
The protocol:
as §1, §2

Assay [6] has as its target T6, Thermus thermophilus TtPFK optical probe 254/255-TtPFK-cpYFP variant, TtPFK I253Y/Q254I (Thermus thermophilus, UniProt P21777, form not given/I253Y/Q254I/Q254N).
T6 construct: the numbering corresponds to the full length of the phosphoenolpyruvate-sensitive polypeptide; His-tag; made in house; host or cells: E. coli BL21 (DE3)
The procedure:
as §1, §2

In assay [7] the target is T7, Thermus thermophilus TtPFK optical probe 254/255-TtPFK-cpYFP variant, TtPFK I253V/Q254L/R255L/G256H, cpYFP Y1S (Thermus thermophilus, UniProt P21777, form not given/G256H/I253V/Q254L/R255L).
T7 construct: the numbering corresponds to the full length of the phosphoenolpyruvate-sensitive polypeptide; His-tag; made in house; host or cells: E. coli BL21 (DE3)
The procedure:
as §1, §2

Assay [8] addresses T8, Thermus thermophilus TtPFK optical probe 254/255-TtPFK-cpYFP variant, TtPFK I253V/Q254A/R255F/G256Y, cpYFP N246F (Thermus thermophilus, UniProt P21777, form not given/G256Y/I253V/Q254A/R255F).
T8 construct: the numbering corresponds to the full length of the phosphoenolpyruvate-sensitive polypeptide; His-tag; made in house; host or cells: E. coli BL21 (DE3)
The procedure: as §1, §2

Assay [9] addresses T9, Thermus thermophilus TtPFK optical probe 254/255-TtPFK-cpYFP variant, TtPFK I253V/Q254L/R255F/G256Y, cpYFP Y1H/N246F (Thermus thermophilus, UniProt P21777, form not given/G256Y/I253V/Q254L/R255F).
T9 construct: His-tag; made in house; host or cells: E. coli BL21 (DE3)
The procedure: as §1, §2

The target of assay [10] is T10, Thermus thermophilus phosphofructokinase TtPFK (SEQ ID NO: 1) optical probe 254/256-TtPFK-cpYFP, no mutation (Thermus thermophilus, UniProt P21777, form not given/R255N).
T10 construct: the numbering corresponds to the full length of the phosphoenolpyruvate-sensitive polypeptide; His-tag; made in house; host or cells: E. coli BL21 (DE3)
The procedure:
as §1, §2

Assay [11] addresses T11, Thermus thermophilus TtPFK optical probe 254/255-TtPFK-I253G/Q254L/R255L/G256F-cpYFP-Y1P (Thermus thermophilus, UniProt P21777, form not given/G256F/I253G/Q254L/R255L).
T11 construct: the numbering corresponds to the full length of the phosphoenolpyruvate-sensitive polypeptide; His-tag; made in house; host or cells: E. coli BL21 (DE3)
The protocol: as §1, §2

Assay [12] concerns the target T12, Thermus thermophilus TtPFK optical probe 254/255-TtPFK-cpYFP variant, TtPFK Q254V/R255I/G256H, cpYFP N246W (Thermus thermophilus, UniProt P21777, form not given/G256H/Q254V/R255I).
T12 construct: the numbering corresponds to the full length of the phosphoenolpyruvate-sensitive polypeptide; His-tag; made in house; host or cells: E. coli BL21 (DE3)
The procedure: as §1, §2

Assay [13] has as its target T13, Thermus thermophilus TtPFK optical probe 254/255-TtPFK-cpYFP variant, TtPFK I253N/Q254L/R255L/G256F, cpYFP Y1S/N246F (Thermus thermophilus, UniProt P21777, form not given/G256F/I253N/Q254L/R255L).
T13 construct: the numbering corresponds to the full length of the phosphoenolpyruvate-sensitive polypeptide; His-tag; made in house; host or cells: E. coli BL21 (DE3)
The procedure:
as §1, §2

`C=C(OP(=O)(O)O)C(=O)O` [phosphoenolpyruvate, Phosphoenolpyruvate]: the Kd in [1] worked out at 800 nM; in assay [2], 8.93 µM; in assay [3], 13.4 µM; in assay [4] it was 17.5 µM; in assay [5] it was 5.56 µM; in assay [6], 1550 nM. The Kd in assay [7] worked out at 5.64 µM; in assay [8], 32 µM; in assay [9], 81.7 µM; in assay [10], 2150 nM; in assay [11], 30.9 µM; in assay [12] it was 11.4 µM. Moreover, the Kd in [13] stood at 9.66 µM.
